{"source": "patent US20070134255A1", "about": "(priority 2003, published 2007)", "key": {"hMPV [1]": {"system": "hMPV", "test": "Ribavirin as a prophylactic: hMPV infected Vero cells counted by immune fluorescence", "type": "cell-based, Human Metapneumovirus", "details": "for reduction in number of infected cells: pre-incubation 2 h before infection, 100 TCID50 hMPV, day 1 post-infection, Vero cells", "method": "(§1) Vero cells (African green monkey kidney cells) were maintained and passaged in Iscove's Modified Dulbecco's Medium (IMDM) containing L-glutamine (2 mM), penicillin (100 U/ml), streptomycin (100 μg/ml) and 10% fetal calf serum (FCS) and incubated in a humidified atmosphere at 37° C. Virus infection medium contained bovine serum albumin (BSA; 0.3%) and trypsin (2.5×10^−4%) instead of FCS. Human Metapneumovirus stocks were prepared by inoculating Vero cells with hMPV, and harvesting 7-10 days post-infection, when there were visible cytopathic effects. The virus was stored at −70° C. and titrated by end point dilution on Vero cells.\nOne day prior to infection, the cells were seeded in 24 well plates at 30-40% confluency, and incubated overnight at 37° C. The next day, cells were pre-incubated with fresh medium containing 0, 5, 25 or 50 μg/ml of Ribavirin for 2 hours prior to virus infection. Following this pre-incubation, cells were infected with 10 or 100 TCID50 (tissue culture infectious doses) of hMPV, in the continuing presence of Ribavirin. After 2 hours, the virus inoculum was washed off and fresh medium containing Ribavirin was put onto the cells.\n(§2) The plates were incubated at 37° C. for 1 or 3 days. Medium was refreshed every second day and Ribavirin was maintained in the medium at all times at the appropriate concentration. After the indicated incubation period, medium was removed, the cells were washed with PBS and cells were fixed with 80% acetone. Staining for immune fluorescence analysis was performed by incubating infected cells with guinea pig anti-hMPV serum in PBS for 1 hour, followed by a FITC-labeled rabbit anti-guinea pig polyclonal antibody preparation (DAKO) in PBS for 1 hour. Background staining was finally performed with eriochrome black before analysis under an immune fluorescence microscope. Infected cells were counted in 5 fields under high power magnification (320×). Results are presented as the total number of infected cells counted in these 5 fields"}, "hMPV [2]": {"system": "hMPV", "test": "Ribavirin as a therapeutic (added post-infection): hMPV infected Vero cells counted by immune fluorescence", "type": "cell-based, Human Metapneumovirus", "details": "for inhibition at 25 µg/mL: human metapneumovirus, Vero, read-out: inhibition of viral replication", "method": "Percentage of cells infected with hMPV. Cells were infected with 30 TCID50 of hMPV and after 0, 2, 4, 8 and 16 hours, post-infection, 0, 5, 10, 25, 50 or 100 microgram of Ribavirin was added. Three days post-infection, cells were fixed and stained with a hMPV-specific polyclonal antibody, and the number of hMPV positive and negative cells were counted in 5 fields.\nas §1\nCells were seeded in 24 well plates as described above. The next day, cells were inoculated with 10 or 100 TCID50 of hMPV in the absence of Ribavirin. Two hours post-infection, the supernatant was aspirated and the cells were washed in phosphate-buffered saline (PBS) to remove virus inoculum. Fresh medium was added and the cells were incubated at 37° C. At different time points (2, 4, 8 and 16 hours) after infection, Ribavirin was added to the cells to reach concentrations of 0, 5, 25 or 50 μg/ml.\nas §2"}, "hMPV strain NL/01/00": {"system": "hMPV strain NL/01/00", "test": "Inhibition of hMPV by Ribavirin and neutralizing antibodies in Vero cells (immunofluorescence, estimated percentages of infected cells)", "type": "cell-based, Human Metapneumovirus", "method": "Passaging and seeding Vero cells (clone 118) was done in standard DMEM medium, supplemented with 10% FCS, L-glutamin and antibiotics (penicillin and streptomycin). Cells were seeded approximately 1:4 in 48 wells plates, so that cells would be ±75% confluent the next day. Infecting cells was done in IMDM medium with […], Pen/Strep and L-glutamin.\n[…]. Plates were finally spun at 1500 g for 5 minutes and incubated at 37C in a humidified atmosphere for 3 days. After 3 days, from duplicate wells of each experimental condition the cells and supernatant were harvested and frozen at −70 C. Aliquots from these virus cultures were used for RNA isolation and subsequent quantification of viral genomic copy numbers by real-time RT-PCR on a TAQMAN® machine. The other duplicate wells from each experimental condition were stained for hMPV by immunofluorescence and numbers of infected cells were counted under a fluorescence microscope. Briefly, cells were washed with PBS and fixed with 80% acetone, washed again and subsequently incubated with a guinea pig anti-hMPV serum. After removal of the antiserum, cells were incubated with a FITC-labeled rabbit-anti-guinea pig polyclonal antibody preparation, washed and analyzed.\nNote: Indicated results are estimated percentages of infected cells. Viral genomic copy numbers remain to be determined by taqman analyses (to be done this week)"}, "PIV type 3 (PIV3)": {"system": "PIV type 3 (PIV3)", "details": "cited from earlier work"}}, "note": "Like-named read-outs stand apart in the source and are kept apart here.", "data": [{"smiles": "NC(=O)c1ncn([C@@H]2O[C@H](CO)[C@@H](O)[C@H]2O)n1", "note": "[Ribavirin]", "values": [{"measurement": "reduction in number of infected cells", "setting": "hMPV [1]; 25 μg/ml Ribavirin", "result": "approximately 50%"}, {"measurement": "decrease in the number of infected cells", "setting": "hMPV [1]; 50 μg/ml Ribavirin added 2 hrs prior to or at the same time as virus infection", "result": "up to 95%"}, {"measurement": "reduction in number of infected cells", "setting": "hMPV [1]; 50 μg/ml Ribavirin", "result": "approximately 95%"}, {"measurement": "effect on number of infected cells compared with day 1", "setting": "hMPV [1]; day 3 after infection, cells infected with 10 or 100 TCID50", "result": "same effect"}, {"measurement": "inhibition of viral replication", "setting": "hMPV [2]; Ribavirin 25 μg/ml added after 16 hrs, read 3 days post-infection", "result": "insignificantly"}, {"measurement": "reduction of infection", "setting": "hMPV [2]; Ribavirin 100 μg/ml added 8 hrs post-infection, read 3 days post-infection", "result": 80, "unit": "%"}, {"measurement": "reduction of infection", "setting": "hMPV [2]; Ribavirin 100 μg/ml added 16 hrs post-infection, read 3 days post-infection", "result": 50, "unit": "%"}, {"measurement": "reduction of infection", "setting": "hMPV [2]; Ribavirin 100 μg/ml added at 0, 2 or 4 hours post-infection, read 3 days post-infection", "result": 95, "unit": "%"}, {"measurement": "percentage of MPV-positive cells", "setting": "hMPV [2]; Ribavirin 25 microgram/ml or higher, added 0-16 hours after infection, 3 days post-infection", "result": "greatly reduced"}, {"measurement": "concentration of Ribavirin needed to see a significant effect", "setting": "hMPV [2]; added 8 or 16 hrs post-infection", "result": 100, "unit": "µg/mL"}, {"measurement": "inhibition at 25 µg/mL", "setting": "hMPV [2]; Ribavirin 25 μg/ml added 4 or 8 hrs post-infection, read 3 days post-infection", "result": 10, "unit": "%"}, {"measurement": "inhibition at 25 µg/mL", "setting": "hMPV [2]; Ribavirin 25 μg/ml added at 0 or 2 hrs post-infection, read 3 days post-infection", "result": 50, "unit": "%"}, {"measurement": "effect on the growth of hMPV in vero cells in vitro", "setting": "hMPV strain NL/01/00; FIG. 3, 50 or 250 TCID50", "result": "profound effect"}, {"measurement": "inhibition at 25 µg/mL", "setting": "hMPV strain NL/01/00; human metapneumovirus, Vero, 72 h, read-out: inhibition of viral proliferation", "result": "~90", "unit": "%"}, {"measurement": "improvement in outcome", "setting": "PIV type 3 (PIV3); Elizaga et al.: 18 of 24 PIV3 patients treated, starting three days after onset of symptoms", "result": "no improvement in outcome was observed"}, {"measurement": "viral shedding of treated and untreated patients", "setting": "PIV type 3 (PIV3); Nichols et al.: 31 of 55 patients with PIV3 pneumonia treated within 48 hours of diagnosis", "result": "similar"}]}]}
